Data published in patent US9469616B2, “Cyclic compounds and methods of making and using the same” (Cellceutix Corporation, priority 2011, dated 2016).

Legend:
human RBCs = format: cell-based; settings: 1 h, pH 7.4
From the text: A new series of aryl compounds was designed to evaluate the effect of charge and aromatic group hydrophobicity on the biological activity while still maintaining an amphiphilic topology. Four and six cationic charges were investigated, and three different central rings were used to tune the overall hydrophobicity: benzene, naphthalene, and phenylbenzene. The hydrophobicities of the aryl compounds were quantified using reversed-phase HPLC retention times (Rt). The antimicrobial activities (expressed as minimum inhibitory concentration (MIC)) of these compounds were tested against four pathogens, including both Gram-negative and Gram-positive bacteria, and their hemolysis (evaluated in terms of HC50, the lowest concentration that causes 50% hemolysis of red blood cells (RBCs)) was tested against human RBCs.
Cytotoxicity of the compounds is also evaluated in a hemolysis assay using human erythrocytes. Pooled whole human blood is centrifuged to separate the red blood cells (RBC). The isolated RBCs are rinsed and diluted in Tris-buffered saline (TBS buffer, pH 7.4) to obtain a 0.22% RBC stock suspension. 5 μL of a Compound stock solution is added to 45 μL of RBC suspension and incubated with shaking for 1 hour at 37° C. At the conclusion of the incubation time, samples are centrifuged and 30 μL of the supernatant is added to 100 μL of water. OD414 measurements are read for hemoglobin concentration. The bee venom peptide melittin is used as a positive control. EC50 values are determined as described above.
Cytotoxicity is also evaluated in a hemolysis assay using isolated human erythrocytes. Pooled whole human blood is centrifuged to separate the red blood cells (RBC). The isolated RBCs are rinsed and diluted in Tris-buffered saline (TBS buffer, pH 7.4) to obtain a 0.22% RBC stock suspension. […] OD405 measurements are read for hemoglobin concentration. […] EC50 values are determined using a four parameter logistic equation: Y=Bottom+(Top−Bottom)/(1+10^((Log EC50−X)*HillSlope)).

RAW 264.7 cells = assay: Cytokine production in RAW 264.7 cells (ELISA); format: cell-based, murine
[1] = test system: primary murine bone marrow-derived macrophages (BMDMs); assay: Cytokine and chemokine production in BMDM cells; format: cell-based, mouse
From the text: The specific self-agonistic effect of Compound 116 along with its elevated agonistic effect with LPS stimulation in RAW 264.7 cells prompted evaluation of Compound 116 activity in primary murine bone marrow-derived macrophages (BMDMs). […] This observation is very similar to the immunomodulatory effect of Compound 116 in RAW 264.7 cells.
It was previously reported that the protective activity of a synthetic cationic peptide against bacterial infection was associated with the induction of chemokines such as CXCL1 from macrophages and/or monocytes. Thus, the ability of this nontoxic, nonpeptidic, antimicrobial compound to modulate both cytokine and chemokine production is encouraging for the design of synthetic molecules with multiple biological functions.

Compound: NCCCOc1cc(-c2ccc3ccc(-c4cc(OCCCN)c(OCCCN)c(OCCCN)c4)cc3c2)cc(OCCCN)c1OCCCN [Compound 116]
- HC50 (human RBCs): 656 µg/mL
- LPS-induced TNF production (RAW 264.7 cells; 5.0 μg/mL preincubation 1 hour, LPS 100 ng/mL 18 hours, FIG. 1B): increased
- LPS-induced IL-6 production (RAW 264.7 cells; 5.0 μg/mL preincubation 1 hour, LPS 100 ng/mL 18 hours, FIG. 1C): increased
- LPS-induced IL-10 production (RAW 264.7 cells; 5.0 μg/mL preincubation 1 hour, LPS 100 ng/mL 18 hours, FIG. 1D): inhibited the production of the anti-inflammatory cytokine IL 10 to background levels
- TNF production (RAW 264.7 cells; 5.0 μg/mL, without LPS, FIG. 1A): induced TNF production
- LPS-induced TNF production with externally added rIL-10 (RAW 264.7 cells; preincubated with mouse rIL-10 50 ng/mL, 5.0 μg/mL compound, LPS 100 ng/mL, FIG. 2): abrogation of Compound 116's capacity to enhance TNF production
- TNF level with externally added rIL-10 (RAW 264.7 cells; preincubated with mouse rIL-10 50 ng/mL, 5.0 μg/mL compound, without LPS, FIG. 2): only a slight decrease in the overall TNF level
- LPS-induced TNF production ([1]; 5.0 μg/mL preincubation 1 hour, LPS 100 ng/mL 15 hours, FIG. 3A): significantly increased
- LPS-induced IL-10 production ([1]; 5.0 μg/mL preincubation 1 hour, LPS 100 ng/mL 15 hours, FIG. 3B): inhibited
- TNF production ([1]; 5.0 μg/mL, in the absence of LPS, FIG. 3A): 30 pg/mL
- murine KC (chemokine CXCL1) levels ([1]; 5.0 μg/mL, relative to the DMSO control, FIG. 3C): significantly higher levels
